Assays:
B16-F10 cells = experiment: Engraftment of indisulam-treated B16-F10 cells into hosts with immune perturbations or with B2m knockout; format: in vivo, mouse
From the text: B16-F10, CT26.WT (CT26), and LLC cells were obtained from ATCC (Cat. CRL-6475, CRL-2638, and CRL-1642 respectively). MB49 cells were obtained from MilliporeSigma (Cat. SCC148, Burlington, Mass.); MC38 cells were obtained from Kerafast (Cat. ENH204-FP, Boston, Mass.). B16-F10 and MC38 cells expressing chicken ovalbumin (B16ova and MC38ova) were a kind gift of Jeff Ravetch (Rockefeller University, New York, N.Y.). To generate β2 microglobulin deficient cell lines for in vitro experiments, four candidate sgRNAs for mouse β2microglobulin (#1 […] (SEQ ID NO:2), #2 […] (SEQ ID NO:3), #3 […] (SEQ ID NO:4), #4 […]) (SEQ ID NO:5), or nontargeting control ([…]) (SEQ ID NO:6) were cloned into pSpCas9(BB)-2A-Puro (PX459) as previously described (Ran, F. A., et al. (2013). Genome engineering using the CRISPR-Cas9 system. Nat Protoc 8, 2281-2308, incorporated herein by reference in its entirety) and used to engineer deficient MC38, B16-F10, and CT26 cell lines via transfection using XtremeGene 9 reagent as per manufacturer's instructions (MilliporeSigma Cat. 6365809001) followed by puromycin selection at 10 μg/mL for three days. Polyclonal cell populations were obtained by flow sorting for H-2K^b/D^b and P2 microglobulin double-negative cells, and gene knockout further confirmed by stimulating a culture of these sorted cells for 48 hours with 10 U/mL mouse IFNγ and analyzing for the same markers. For in vivo experiments, lentiCas9-Blast was used to generate Cas9-expressing B16-F10 cells. […]
Unless otherwise specified, syngeneic B6 or Balb/c mice were engrafted subcutaneously on bilateral flanks with MC38, B16-F10, CT26 or LLC tumor cells at the following doses: MC38 10^6 cells, B16-F10 0.5×10^6 cells, CT26 0.25×10^6 cells, LLC 0.25×10^6 cells. Tumors were measured serially twice or three times weekly and tumor volumes were estimated by length×width×height. Animals were monitored daily for survival and weighed twice weekly. […]

RBM39 = target: T1, RBM39 (Mus musculus, UniProt Q6PFH3+Q8VH51); experiment: RBM39 protein in tissues after in vivo indisulam; conditions: therapeutic indisulam doses
T1 construct: endogenous in cells; host or cells: B16-F10 (also MC38, CT26, LLC)
Protocol: Western blotting was performed as per standard techniques. Anti-RBM39 (Atlas Antibodies, Cat. HPA001591 or Bethyl laboratories, Cat. A300-291A) were used to detect RBM39 degradation. ADMA and SDMA levels were determined using antibodies from Cell Signaling Technologies (Cat. 13222S and Cat. 135225). Actin antibody (clone AC-15) was obtained from MilliporeSigma (Cat. A5441-.2ML). Densitometry of RBM39 and actin loading control was performed using ImageJ software in order to calculate RBM39 degradation IC50 values.
Mice were weighed weekly for weight-based drug dosing.

[1] = mouse, in vivo
Protocol: Animals were subcutaneously engrafted on bilateral flanks with tumor cells (MC38 1×10^6, B16-F10 0.5×10^6 and LLC 0.25×10^6 cells unless otherwise specified) on day 0, and treated continuously with splicing inhibitors (MS-023 50 mg/kg i.p., indisulam 25 mg/kg i.v. or vehicle) daily for 5 of 7 weekly days starting from day +3 of tumor challenge. […] Mice were weighed weekly for weight-based drug dosing.

With `NS(=O)(=O)c1ccc(S(=O)(=O)Nc2cccc3c(Cl)c[nH]c23)cc1` [indisulam] the “growth inhibition with loss of β2-microglobulin in B16-F10” value (B16-F10 cells; B2m CRISPR knockout vs control B16-F10, indisulam pretreatment) was “rescued the growth inhibition”, the “in vivo growth inhibition with NK depletion” value (B16-F10 cells; B16-F10 treated 1 μM 96 hours, NK cell depletion) was “did not rescue cell growth” and the “in vivo tumor growth inhibition in Rag2 recipients and with T cell depletion” value (B16-F10 cells; B16-F10 treated 1 μM 96 hours, anti-CD4 and anti-CD8) was “rescued”. For the same compound, the “RBM39 protein in tumoral as well as immune tissues in vivo” value (RBM39) was “on-target RBM39 protein reduction” and the “lymphocytes, neutrophils, or other peripheral blood counts” value [1] was “negligible effects”.

From patent publication US20230190707A1, “COMPOSITIONS AND METHODS FOR ENHANCING CANCER IMMUNOTHERAPY” (FRED HUTCHINSON CANCER CENTER, priority 2020, published 2023)
